Measured values published in patent US20260042731A1, “(2,4-DICHLOROPHENOXY)ACETIC ACID ANALOGS” (CORTEVA AGRISCIENCE LLC, priority 2022, published 2026).
Read-outs that look alike come from different tables or passages of the source.

Tests used:
[1] = tested on: Amaranthus rudis (AMATA), tall water hemp; experiment: Postemergence herbicide evaluation, growth of Amaranthus rudis (AMATA); type: in vivo; settings: Amaranthus tuberculatus, post-emergence, read-out: Ave. AMATA, percent reduction in plant size relative to the untreated control; for pest or weed control at 280 g/ha: 280 g ae/ha; for pest or weed control at 560 g/ha: 560 g ae/ha
[2] = tested on: Ambrosia artemisiifolia (AMBEL), common ragweed; experiment: Postemergence herbicide evaluation, growth of Ambrosia artemisiifolia (AMBEL); type: in vivo; settings: Ambrosia artemisiifolia, post-emergence, read-out: AVE. AMBEL, percent reduction in plant size relative to the untreated control; for pest or weed control at 280 g/ha: 280 g ae/ha; for pest or weed control at 560 g/ha: 560 g ae/ha
[3] = tested on: Abutilon theophrasti (ABUTH), velvetleaf; experiment: Postemergence herbicide evaluation, growth of Abutilon theophrasti (ABUTH); type: in vivo; settings: Abutilon theophrasti, post-emergence, read-out: AVE. ABUTH, percent reduction in plant size relative to the untreated control; for pest or weed control at 280 g/ha: 280 g ae/ha; for pest or weed control at 560 g/ha: 560 g ae/ha
[4] = tested on: Chenopodium album (CHEAL), common lambsquarters; experiment: Postemergence herbicide evaluation, growth of Chenopodium album (CHEAL); type: in vivo; settings: Chenopodium album, post-emergence, read-out: Ave. CHEAL, percent reduction in plant size relative to the untreated control; for pest or weed control at 280 g/ha: 280 g ae/ha; for pest or weed control at 560 g/ha: 560 g ae/ha
[5] = tested on: glyphosate resistant Conyza canadensis (L.) (ERICA), horseweed; experiment: Postemergence herbicide evaluation, growth of Conyza canadensis (ERICA); type: in vivo; settings: Erigeron canadensis, post-emergence, read-out: Ave. ERICA, percent reduction in plant size relative to the untreated control; for pest or weed control at 280 g/ha: 280 g ae/ha; for pest or weed control at 560 g/ha: 560 g ae/ha
[6] = Volatility of compounds measured by thermogravimetric analysis (TGA); type: physicochemical
[7] = tested on: weeds ABUTH, AMATA, AMBEL, CHEAL, ERICA; experiment: Postemergence herbicide evaluation, overall average % weed control (ABUTH, AMATA, AMBEL, CHEAL, ERICA); type: in vivo; settings: post-emergence, read-out: Overall Ave % Weed Control; for pest or weed control at 280 g/ha: 280 g ae/ha; for pest or weed control at 560 g/ha: 560 g ae/ha

Compound	pest or weed control at 280 g/ha ([1]; 168 h, 7 DAA)	pest or weed control at 560 g/ha ([1]; 168 h, 7 DAA)	pest or weed control at 280 g/ha ([1]; 336 h, 14 DAA)	pest or weed control at 560 g/ha ([1]; 336 h, 14 DAA)	pest or weed control at 280 g/ha ([1]; 504 h, 21 DAA)	pest or weed control at 560 g/ha ([1]; 504 h, 21 DAA)	pest or weed control at 280 g/ha ([2]; 168 h, 7 DAA)	pest or weed control at 560 g/ha ([2]; 168 h, 7 DAA)	pest or weed control at 280 g/ha ([2]; 336 h, 14 DAA)	pest or weed control at 560 g/ha ([2]; 336 h, 14 DAA)	pest or weed control at 280 g/ha ([2]; 504 h, 21 DAA)	pest or weed control at 560 g/ha ([2]; 504 h, 21 DAA)	pest or weed control at 280 g/ha ([3]; 168 h, 7 DAA)	pest or weed control at 560 g/ha ([3]; 168 h, 7 DAA)	pest or weed control at 280 g/ha ([3]; 336 h, 14 DAA)	pest or weed control at 560 g/ha ([3]; 336 h, 14 DAA)	pest or weed control at 280 g/ha ([3]; 504 h, 21 DAA)	pest or weed control at 560 g/ha ([3]; 504 h, 21 DAA)	pest or weed control at 280 g/ha ([4]; 168 h, 7 DAA)	pest or weed control at 560 g/ha ([4]; 168 h, 7 DAA)	also measured
C/C(=N\OC(=O)COc1ccc(Cl)cc1Cl)c1ccccc1Cl [Compound A24]	82.5%	72.5%	92.5%	90%	77.5%	72.5%	70%	75%	75%	75%	97.5%	100%	62.5%	57.5%	77.5%	67.5%	80%	85%	75%	77.5%	pest or weed control at 280 g/ha ([4]; 336 h, 14 DAA): 91.5%; pest or weed control at 560 g/ha ([4]; 336 h, 14 DAA): 95%; pest or weed control at 280 g/ha ([4]; 504 h, 21 DAA): 98.5%; pest or weed control at 560 g/ha ([4]; 504 h, 21 DAA): 94.5%; pest or weed control at 280 g/ha ([5]; 168 h, 7 DAA): 80%; pest or weed control at 560 g/ha ([5]; 168 h, 7 DAA): 75%; pest or weed control at 280 g/ha ([5]; 336 h, 14 DAA): 98.5%; pest or weed control at 560 g/ha ([5]; 336 h, 14 DAA): 91.5%; pest or weed control at 280 g/ha ([5]; 504 h, 21 DAA): 94.5%; pest or weed control at 560 g/ha ([5]; 504 h, 21 DAA): 97%; TGA Data (rate of weight loss, volatility) [6]: 0.03549 µg/min; pest or weed control at 280 g/ha ([7]; 168 h, 7 DAA): 74%; pest or weed control at 560 g/ha ([7]; 168 h, 7 DAA): 71.5%; pest or weed control at 280 g/ha ([7]; 336 h, 14 DAA): 87%; pest or weed control at 560 g/ha ([7]; 336 h, 14 DAA): 83.8%; pest or weed control at 280 g/ha ([7]; 504 h, 21 DAA): 89.6%; pest or weed control at 560 g/ha ([7]; 504 h, 21 DAA): 89.8%
C/C(=N\OC(=O)COc1ccc(Cl)cc1Cl)c1cccnc1 [Compound A26]	65%	94%	85%	90%	67.5%	92.5%	80%	77.5%	72.5%	90%	100%	100%	62.5%	67.5%	72.5%	92.5%	96%	100%	72.5%	80%	pest or weed control at 280 g/ha ([4]; 336 h, 14 DAA): 97.5%; pest or weed control at 560 g/ha ([4]; 336 h, 14 DAA): 95%; pest or weed control at 280 g/ha ([4]; 504 h, 21 DAA): 87.5%; pest or weed control at 560 g/ha ([4]; 504 h, 21 DAA): 95%; pest or weed control at 280 g/ha ([5]; 168 h, 7 DAA): 80%; pest or weed control at 560 g/ha ([5]; 168 h, 7 DAA): 82.5%; pest or weed control at 280 g/ha ([5]; 336 h, 14 DAA): 99%; pest or weed control at 560 g/ha ([5]; 336 h, 14 DAA): 99.5%; pest or weed control at 280 g/ha ([5]; 504 h, 21 DAA): 100%; pest or weed control at 560 g/ha ([5]; 504 h, 21 DAA): 100%; TGA Data (rate of weight loss, volatility) ([6]; value marked *: decomposition of the material was observed): 1.599* μg/min; pest or weed control at 280 g/ha ([7]; 168 h, 7 DAA): 72%; pest or weed control at 560 g/ha ([7]; 168 h, 7 DAA): 80.3%; pest or weed control at 280 g/ha ([7]; 336 h, 14 DAA): 85.3%; pest or weed control at 560 g/ha ([7]; 336 h, 14 DAA): 93.4%; pest or weed control at 280 g/ha ([7]; 504 h, 21 DAA): 90.2%; pest or weed control at 560 g/ha ([7]; 504 h, 21 DAA): 97.5%
N/C(=N\OC(=O)COc1ccc(Cl)cc1Cl)c1cccnc1 [Compound A4, N′-(2-(2,4-Dichlorophenoxy)acetoxy)nicotinimidamide]	75%	60%	75%	73%	70%	75%	60%	68%	78%	88%	88%	85%	35%	50%	40%	58%	38%	53%	60%	68%	pest or weed control at 280 g/ha ([4]; 336 h, 14 DAA): 63%; pest or weed control at 560 g/ha ([4]; 336 h, 14 DAA): 75%; pest or weed control at 280 g/ha ([4]; 504 h, 21 DAA): 63%; pest or weed control at 560 g/ha ([4]; 504 h, 21 DAA): 83%; pest or weed control at 280 g/ha ([5]; 168 h, 7 DAA): 60%; pest or weed control at 560 g/ha ([5]; 168 h, 7 DAA): 65%; pest or weed control at 280 g/ha ([5]; 336 h, 14 DAA): 83%; pest or weed control at 560 g/ha ([5]; 336 h, 14 DAA): 85%; pest or weed control at 280 g/ha ([5]; 504 h, 21 DAA): 88%; pest or weed control at 560 g/ha ([5]; 504 h, 21 DAA): 88%; TGA Data (rate of weight loss, volatility) [6]: 1 µg/min; pest or weed control at 280 g/ha ([7]; 168 h, 7 DAA): 58%; pest or weed control at 560 g/ha ([7]; 168 h, 7 DAA): 62%; pest or weed control at 280 g/ha ([7]; 336 h, 14 DAA): 68%; pest or weed control at 560 g/ha ([7]; 336 h, 14 DAA): 76%; pest or weed control at 280 g/ha ([7]; 504 h, 21 DAA): 69%; pest or weed control at 560 g/ha ([7]; 504 h, 21 DAA): 77%
